Measured values from patent US20070093969A1, “Molecular nephrotoxicology modeling” (priority 2002, published 2007).

Key:
rats [1] = conditions: rat, in vivo; cited from earlier work
[2] = test system: kidney tissue gene expression; conditions: rat, in vivo
patients = conditions: human, in vivo; cited from earlier work
rats [3] = conditions: cited from earlier work
[4] = test system: renal GST-alpha subunit, cytochrome P4502E1; conditions: rat, in vivo; cited from earlier work

## ClC(Cl)(Cl)Cl [carbon tetrachloride, Carbon tetrachloride]
Rats [1]
  glutathione peroxidase activity: significant decrease
  kidney superoxide dismutase and catalase activities: Significant increases

## ClC(Cl)Cl [chloroform, Chloroform (CHCl3)]
[2]
  Tox Group Mean, GLGC Identifier 1143: 131.83
  Tox Group Mean, GLGC Identifier 1409: 298.20
  Tox Group Mean, GLGC Identifier 1509: 431.65
  Tox Group Mean, GLGC Identifier 1581: 87.66
  Tox Group Mean, GLGC Identifier 1644: 418.83
  Tox Group Mean, GLGC Identifier 1652: 476.16
  Tox Group Mean, GLGC Identifier 1653: 686.13
  Tox Group Mean, GLGC Identifier 1877: 444.75
  Tox Group Mean, GLGC Identifier 1929: 536.97
  Tox Group Mean, GLGC Identifier 1949: 57.75
  Tox Group Mean, GLGC Identifier 2059: 219.06
  Tox Group Mean, GLGC Identifier 2439: 102.63
  Tox Group Mean, GLGC Identifier 2912: 1436.37
  Tox Group Mean, GLGC Identifier 3015: 2837.91
  Tox Group Mean, GLGC Identifier 3091: 421.64
  Tox Group Mean, GLGC Identifier 3803: 975.63
  Tox Group Mean, GLGC Identifier 3875: 252.35
  Tox Group Mean, GLGC Identifier 4178: 444.39
  Tox Group Mean, GLGC Identifier 4462: 414.41
  Tox Group Mean, GLGC Identifier 4463: 43.16
  Tox Group Mean, GLGC Identifier 4473: 95.76
  Tox Group Mean, GLGC Identifier 4933: 743.88
  Tox Group Mean, GLGC Identifier 5369: 274.28
  Tox Group Mean, GLGC Identifier 6127: 41.36
  Tox Group Mean, GLGC Identifier 6343: 46.79
  Tox Group Mean, GLGC Identifier 6641: 233.86
  Tox Group Mean, GLGC Identifier 7216: 123.29
  Tox Group Mean, GLGC Identifier 7299: 334.53
  Tox Group Mean, GLGC Identifier 7505: 274.29
  Tox Group Mean, GLGC Identifier 7622: 88.74
  Tox Group Mean, GLGC Identifier 7634: 538.91
  Tox Group Mean, GLGC Identifier 7936: 93.98
  Tox Group Mean, GLGC Identifier 8721: 73.87
  Tox Group Mean, GLGC Identifier 8829: 505.66
  Tox Group Mean, GLGC Identifier 8927: 508.53
  Tox Group Mean, GLGC Identifier 8946: 112.12
  Tox Group Mean, GLGC Identifier 9116: 269.31
  Tox Group Mean, GLGC Identifier 9176: 288.61
  Tox Group Mean, GLGC Identifier 9191: 277.28
  Tox Group Mean, GLGC Identifier 10130: 117.70
  Tox Group Mean, GLGC Identifier 11761: 49.48
  Tox Group Mean, GLGC Identifier 11843: 61.43
  Tox Group Mean, GLGC Identifier 11953: 1079.47
  Tox Group Mean, GLGC Identifier 12129: 245.65
  Tox Group Mean, GLGC Identifier 13610: 226.14
  Tox Group Mean, GLGC Identifier 13646: 1169.38
  Tox Group Mean, GLGC Identifier 13727: 35.36
  Tox Group Mean, GLGC Identifier 14267: 1171.51
  Tox Group Mean, GLGC Identifier 15072: 42.04
  Tox Group Mean, GLGC Identifier 15836: 121.07
  Tox Group Mean, GLGC Identifier 15964: 583.51
  Tox Group Mean, GLGC Identifier 16468: 831.97
  Tox Group Mean, GLGC Identifier 16469: 991.10
  Tox Group Mean, GLGC Identifier 16756: 361.18
  Tox Group Mean, GLGC Identifier 16948: 145.85
  Tox Group Mean, GLGC Identifier 16958: 61.46
  Tox Group Mean, GLGC Identifier 17361: 50.93
  Tox Group Mean, GLGC Identifier 17516: 500.55
  Tox Group Mean, GLGC Identifier 17524: 799.10
  Tox Group Mean, GLGC Identifier 17541: 1464.81
  Tox Group Mean, GLGC Identifier 18509: 311.54
  Tox Group Mean, GLGC Identifier 19110: 84.32
  Tox Group Mean, GLGC Identifier 19144: 36.63
  Tox Group Mean, GLGC Identifier 19377: 155.74
  Tox Group Mean, GLGC Identifier 19679: 440.67
  Tox Group Mean, GLGC Identifier 19822: 994.53
  Tox Group Mean, GLGC Identifier 20000: 93.69
  Tox Group Mean, GLGC Identifier 20582: 347.72
  Tox Group Mean, GLGC Identifier 20708: 80.85
  Tox Group Mean, GLGC Identifier 20725: 621.86
  Tox Group Mean, GLGC Identifier 20741: 236.26
  Tox Group Mean, GLGC Identifier 21025: 233.83
  Tox Group Mean, GLGC Identifier 21060: 133.69
  Tox Group Mean, GLGC Identifier 21061: 86.99
  Tox Group Mean, GLGC Identifier 21088: 56.92
  Tox Group Mean, GLGC Identifier 21562: 265.87
  Tox Group Mean, GLGC Identifier 22490: 811.57
  Tox Group Mean, GLGC Identifier 22537: 145.19
  Tox Group Mean, GLGC Identifier 22648: 313.31
  Tox Group Mean, GLGC Identifier 22783: 473.86
  Tox Group Mean, GLGC Identifier 22855: 373.13
  Tox Group Mean, GLGC Identifier 22985: 83.55
  Tox Group Mean, GLGC Identifier 23033: 431.39
  Tox Group Mean, GLGC Identifier 23115: 278.57
  Tox Group Mean, GLGC Identifier 23282: 425.15
  Tox Group Mean, GLGC Identifier 23718: 65.41
  Tox Group Mean, GLGC Identifier 24234: 408.25
  Tox Group Mean, GLGC Identifier 24437: 56.38
  Tox Group Mean, GLGC Identifier 25168: 32.68
  Tox Group Mean, GLGC Identifier 25643: 187.37
  Tox Group Mean, GLGC Identifier 25777: 1173.74
  Tox Group Mean, GLGC Identifier 25862: 38.61
  Tox Group Mean, GLGC Identifier 25921: 47.30
  Tox Group Mean, GLGC Identifier 26183: 64.68

## Nc1ccn(C[C@@H](CO)OCP(=O)(O)O)c(=O)n1 [cidofovir, Cidofovir]
patients
  patients with dose-dependent asymptomatic proteinuria: Approximately 40%
  patients with elevated serum creatinine levels: 25%

## NNc1nncc2ccccc12 [hydralazine, Hydralazine]
Rats [3]; compared to control groups
  kidney copper concentrations: increased
Rats [3]; rat, in vivo
  manganese and zinc concentrations: not effected
[4]
  renal GST-alpha subunit expression: increase
  renal cytochrome P4502E1 expression: did not alter
